{"source": "paper PMC9668969", "about": "(Nature Communications, 2022)", "system": "WT ELIC", "assay": "Fluorescence stopped-flow liposomal Tl+ flux assay, symmetric liposomes", "assay_type": "biochemical, Erwinia chrysanthemi", "parameters": "Tl+ flux quenching rate, Avg. / Tl+ flux quenching rate: unit not given here", "settings": "for Avg (stopped-flow fluorescence quenching rate) / Rate (stopped-flow fluorescence quenching rate): WT in PC liposomes; for Avg (stopped-flow fluorescence quenching rate): average of experiments; for Rate (stopped-flow fluorescence quenching rate) / Tl+ flux quenching rate: single experiments", "method": "The fluorescence sequential-mixing stopped-flow liposomal flux measurements were carried using an SX20 stopped-flow spectrofluorometer (Applied Photophysics) and Pro-Data SX software[13],[30]. 7.5 mg of the respective lipid mixture (POPC, 1:1 POPC: POPE, 1:1 POPC:POPG, 3:1 POPC:POPE, 3:1 POPC:POPG, 2:1:1 POPC:POPE:POPG) was dried in a glass vial to a thin film under a constant stream of N2. The lipids were then further dried under vacuum in a desiccator overnight. The following day the lipids were hydrated in 500 µl of reconstitution buffer (100 mM NaNO3, 10 mM HEPES, pH 7) (Buffer R), 250 µl of 75 mM 8-Aminonaphthalene-1,3,6-Trisulfonic Acid (ANTS, ThermoFisher Scientific) in buffer R, and doped with ~18 mg of CHAPS (Anatrace). The mixture was vortexed and then sonicated with heat until completely solubilized. Following the sonication, the solution was brought to RT then 3.5 µl of 6.7 mg/ml ELIC in Buffer A with 0.02% DDM was added (3 µg per mg of lipid). This combined solution was incubated at RT for 30 min, followed by the addition of 1 ml of 1:1 v/v SM-2 BioBeads in Buffer R and an additional 250 µl of 75 mM ANTS in Buffer R. This mixture was incubated at RT for 2.5 hr with gentle mixing. The liposome suspension was then extruded with an Avanti mini-extruder and 0.1 µm membrane (30×). The extruded liposomes were stored at 13 °C overnight with gentle rotation. The next day, the liposomes were diluted to 2.5 mL using assay buffer (140 mM NaNO3, 10 mM HEPES, pH 7) (Stopped-flow Buffer A), loaded into a PD-10 desalting column (Cytiva), eluted with 3 mL of Stopped-flow Buffer A and subsequently diluted 5-fold with Stopped-flow Buffer A.\nUsing propylamine as the agonist, the assay and analysis was carried out as previously described[13],[30]. ELIC-containing liposomes were first mixed 1:1 with Buffer A containing 2× the concentration of propylamine. After a variable delay of 10 ms to 25 s, the sample was then mixed 1:1 with a quenching buffer (90 mM NaNO3, 50 mM TlNO3, 10 mM HEPES, pH 7), and ANTS fluorescence (ex. 360 nm, fluorescence above 420 nm) was recorded for 1 s. For each delay time, 5 repeat measurements were obtained. The data were collected using Applied Photophysics Pro-Data SX software. The fluorescence quenching traces were fit to a stretched exponential (Eq. 2a) and the rate of Tl^+ influx was determined at 2 ms (Eq. 2b).2a Ft=F∞+F0−F∞⋅e^−t/τ^β 2b kt=β/τ⋅2ms/τ^(β−1) where Ft, F∞, F0 are the fluorescence at time t, final fluorescence and initial fluorescence. τ is the time constant, β the stretched exponential factor, and kt the calculated rate of Tl^+ influx at 2 ms. The time course of desensitization was also fit to a double exponential and a weighted time constant was calculated as was done for the patch-clamp data using Origin 2019b. All replicates were taken from independent samples.", "note": "Values joined by “and” are separate entries in the source; they are usually repeats but may differ in a detail not shown here. Equal values may be shown once.", "data": [{"molecule": "CCCN", "note": "[propylamine]", "values": [{"measurement": "Avg (stopped-flow fluorescence quenching rate)", "setting": "1 mM PA, delay time 0.1", "value": 0.1082}, {"measurement": "Avg (stopped-flow fluorescence quenching rate)", "setting": "1 mM PA, delay time 0.25", "value": 0.06695}, {"measurement": "Avg (stopped-flow fluorescence quenching rate)", "setting": "1 mM PA, delay time 0.5", "value": 0.1937}, {"measurement": "Avg (stopped-flow fluorescence quenching rate)", "setting": "1 mM PA, delay time 1", "value": 0.6717}, {"measurement": "Avg (stopped-flow fluorescence quenching rate)", "setting": "1 mM PA, delay time 2.5", "value": 0.1973}, {"measurement": "Avg (stopped-flow fluorescence quenching rate)", "setting": "1 mM PA, delay time 5", "value": 0.1019}, {"measurement": "Avg (stopped-flow fluorescence quenching rate)", "setting": "1 mM PA, delay time 10", "value": 0.1686}, {"measurement": "Avg (stopped-flow fluorescence quenching rate)", "setting": "3 mM PA, delay time 0", "value": 0}, {"measurement": "Rate (stopped-flow fluorescence quenching rate)", "setting": "3 mM PA, delay time 0", "value": 0}, {"measurement": "Avg (stopped-flow fluorescence quenching rate)", "setting": "3 mM PA, delay time 0.025", "value": 24.9362}, {"measurement": "Avg (stopped-flow fluorescence quenching rate)", "setting": "3 mM PA, delay time 0.05", "value": 279.785}, {"measurement": "Avg (stopped-flow fluorescence quenching rate)", "setting": "3 mM PA, delay time 0.1", "value": 279.666}, {"measurement": "Avg (stopped-flow fluorescence quenching rate)", "setting": "3 mM PA, delay time 0.25", "value": 300.719}, {"measurement": "Avg (stopped-flow fluorescence quenching rate)", "setting": "3 mM PA, delay time 0.5", "value": 352.59}, {"measurement": "Avg (stopped-flow fluorescence quenching rate)", "setting": "3 mM PA, delay time 1", "value": 284.973}, {"measurement": "Avg (stopped-flow fluorescence quenching rate)", "setting": "3 mM PA, delay time 2.5", "value": 176.344}, {"measurement": "Avg (stopped-flow fluorescence quenching rate)", "setting": "3 mM PA, delay time 5", "value": 145.791}, {"measurement": "Avg (stopped-flow fluorescence quenching rate)", "setting": "3 mM PA, delay time 10", "value": 107.502}, {"measurement": "Avg (stopped-flow fluorescence quenching rate)", "setting": "10 mM PA, delay time 0", "value": 0}, {"measurement": "Rate (stopped-flow fluorescence quenching rate)", "setting": "10 mM PA, delay time 0", "value": 0}, {"measurement": "Avg (stopped-flow fluorescence quenching rate)", "setting": "10 mM PA, delay time 0.01", "value": 3.242}, {"measurement": "Avg (stopped-flow fluorescence quenching rate)", "setting": "10 mM PA, delay time 0.025", "value": 7.793}, {"measurement": "Avg (stopped-flow fluorescence quenching rate)", "setting": "10 mM PA, delay time 0.05", "value": 10.0904}, {"measurement": "Avg (stopped-flow fluorescence quenching rate)", "setting": "10 mM PA, delay time 0.05 as printed in r31 (between 0.25 and 1)", "value": 13.718}, {"measurement": "Avg (stopped-flow fluorescence quenching rate)", "setting": "10 mM PA, delay time 0.1", "value": 10.8806}, {"measurement": "Avg (stopped-flow fluorescence quenching rate)", "setting": "10 mM PA, delay time 0.25", "value": 11.6946}, {"measurement": "Avg (stopped-flow fluorescence quenching rate)", "setting": "10 mM PA, delay time 1", "value": 9.9293}, {"measurement": "Avg (stopped-flow fluorescence quenching rate)", "setting": "10 mM PA, delay time 2.5", "value": 4.516}, {"measurement": "Avg (stopped-flow fluorescence quenching rate)", "setting": "10 mM PA, delay time 5", "value": 0.8684}, {"measurement": "Rate (stopped-flow fluorescence quenching rate)", "setting": "10 mM PA, delay time 10, listed as PA", "value": "0.134 and 0.08335 and 0.06725"}, {"measurement": "Avg (stopped-flow fluorescence quenching rate)", "setting": "30 mM PA, delay time 0", "value": 0}, {"measurement": "Rate (stopped-flow fluorescence quenching rate)", "setting": "30 mM PA, delay time 0", "value": 0}, {"measurement": "Avg (stopped-flow fluorescence quenching rate)", "setting": "30 mM PA, delay time 0.01", "value": 8.996}, {"measurement": "Avg (stopped-flow fluorescence quenching rate)", "setting": "30 mM PA, delay time 0.025", "value": 9.575}, {"measurement": "Avg (stopped-flow fluorescence quenching rate)", "setting": "30 mM PA, delay time 0.05", "value": 10.6204}, {"measurement": "Avg (stopped-flow fluorescence quenching rate)", "setting": "30 mM PA, delay time 0.1", "value": 12.7838}, {"measurement": "Avg (stopped-flow fluorescence quenching rate)", "setting": "30 mM PA, delay time 0.25", "value": 12.1642}, {"measurement": "Avg (stopped-flow fluorescence quenching rate)", "setting": "30 mM PA, delay time 0.5", "value": 10.2984}, {"measurement": "Avg (stopped-flow fluorescence quenching rate)", "setting": "30 mM PA, delay time 1", "value": 6.967}, {"measurement": "Avg (stopped-flow fluorescence quenching rate)", "setting": "30 mM PA, delay time 2.5", "value": 2.226}, {"measurement": "Avg (stopped-flow fluorescence quenching rate)", "setting": "30 mM PA, delay time 5", "value": 0.2318}, {"measurement": "Rate (stopped-flow fluorescence quenching rate)", "setting": "30 mM PA, delay time 25, listed as PA", "value": "0.1998 and 0.3265"}, {"measurement": "Tl+ flux quenching rate", "setting": "WT 1:1 PC:PE 10 mM PA, delay 0.1 s, listed as PA", "value": "18.5265 and 20.1957 and 27.1402"}, {"measurement": "Tl+ flux quenching rate", "setting": "WT 1:1 PC:PE 10 mM PA, delay 0.25 s, listed as PA", "value": "14.1307 and 20.5822 and 22.3191"}, {"measurement": "Tl+ flux quenching rate", "setting": "WT 1:1 PC:PE 10 mM PA, delay 5 s, listed as PA", "value": "8.309 and 12.2434 and 8.587"}, {"measurement": "Tl+ flux quenching rate", "setting": "WT 3:1 PC:PE 10 mM PA, delay 0.05 s, listed as PA", "value": "17.3372 and 23.7705 and 12.3709"}, {"measurement": "Tl+ flux quenching rate", "setting": "WT 3:1 PC:PE 10 mM PA, delay 0.1 s, listed as PA", "value": "25.2651 and 29.8644 and 21.5739"}, {"measurement": "Tl+ flux quenching rate", "setting": "WT 3:1 PC:PE 10 mM PA, delay 0.5 s, listed as PA", "value": "30.0354 and 34.8933 and 24.5328"}, {"measurement": "Tl+ flux quenching rate", "setting": "WT 3:1 PC:PG 10 mM PA, delay 1 s, listed as PA", "value": "9.374 and 10.6202 and 12.8093"}, {"measurement": "Tl+ flux quenching rate", "setting": "WT 3:1 PC:PG 10 mM PA, delay 2.5 s, listed as PA", "value": "7.906 and 8.478 and 12.3833"}, {"measurement": "Tl+ flux quenching rate", "setting": "WT 3:1 PC:PG 10 mM PA, delay 5 s, listed as PA", "value": "5.2352 and 10.1414 and 9.072"}, {"measurement": "Tl+ flux quenching rate", "setting": "WT PC 10 mM PA, delay 10 s, listed as PA", "value": "0.134 and 0.08335 and 0.06725"}]}]}
